Measurements as given in patent US9409884B2 (Rigel Pharmaceuticals, Inc., priority 2012, dated 2016).

molecular target: AMPK; assay: AMPK activation, enzyme-linked immunosorbent assay; format: biochemical; settings: Table 12, compounds of Table 5
Procedure, shortened: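 AMPK activation by test compounds was measured by enzyme-linked immunosorbent assay.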

Compound | EC50 [nM]
N#Cc1ccc(CN2CCC(NC(=O)c3cccc(OC4CCN(Cc5ccc(C(F)(F)F)cc5)CC4)c3)CC2)cc1 [Compound 5-125, N-(1-(4-cyanobenzyl)piperidin-4-yl)-3-(1-(4-(trifluoromethyl)benzyl)piperidin-4-yloxy)benzamide] | < 1000
N#Cc1ccc(CN2CCC(NC(=O)c3cccc(O[C@@H]4CCN(Cc5ccc(C#N)c(F)c5)C[C@H]4F)c3)CC2)cc1 [Compound 5-129, 3-((3,4-trans)-1-(4-cyano-3-fluorobenzyl)-3-fluoropiperidin-4-yloxy)-N-(1-(4-cyanobenzyl)piperidin-4-yl)benzamide] | < 1000

Second part, the molecule after the results:

EC50 [nM] | Compound
< 1000 | N#Cc1ccc(CN2CCC(NC(=O)c3cccc(O[C@@H]4CCN(Cc5ccc(C(F)(F)F)cc5)C[C@H]4F)c3)CC2)cc1 [Compound 5-126, N-(1-(4-cyanobenzyl)piperidin-4-yl)-3-((3,4-trans)-3-fluoro-1-(4-(trifluoromethyl)benzyl)piperidin-4-yloxy)benzamide]
< 1000 | CC(C)Oc1ccc(CN2CC[C@@H](Oc3cccc(C(=O)NC4CCN(Cc5ccc(C#N)cc5)CC4)c3)[C@H](F)C2)cc1 [Compound 5-127, N-(1-(4-cyanobenzyl)piperidin-4-yl)-3-((3,4-trans)-3-fluoro-1-(4-isopropoxybenzyl)piperidin-4-yloxy)benzamide]
< 1000 | CS(=O)(=O)c1ccc(CN2CC[C@@H](Oc3cccc(C(=O)NC4CCN(Cc5ccc(C#N)cc5)CC4)c3)[C@H](F)C2)cc1 [Compound 5-128, N-(1-(4-cyanobenzyl)piperidin-4-yl)-3-((3,4-trans)-3-fluoro-1-(4-(methylsulfonyl)benzyl)piperidin-4-yloxy)benzamide]

same assay, conditions: Table 13, compounds of Table 6

Compound | EC50 [nM]
CS(=O)(=O)c1ccc(CN2CCN(C(=O)c3ccc4cc(C(=O)NC5CCN(Cc6ccc(C#N)cc6)CC5)oc4c3)CC2)cc1 [Compound 6-2, N-(1-(4-cyanobenzyl)piperidin-4-yl)-6-(4-(4-(methylsulfonyl)benzyl)piperazine-1-carbonyl) benzofuran-2-carboxamide] | 100 to 1000
CS(=O)(=O)c1ccc(CN2CCN(C(=O)c3ccc4cc(C(=O)NC5CCN(Cc6ccc(OC(F)(F)F)cc6)CC5)oc4c3)CC2)cc1 [Compound 6-4, 6-(4-(4-(methylsulfonyl)benzyl)piperazine-1-carbonyl)-N-(1-(4-(trifluoromethoxy)benzyl)piperidin-4-yl)benzofuran-2-carboxamide] | 100 to 1000
CC(=O)c1ccc(Oc2ccc(NC(=O)c3cc4ccc(C(=O)N5CCN(Cc6ccc(S(C)(=O)=O)cc6)CC5)cc4o3)cn2)cc1 [Compound 6-6, N-(6-(4-acetylphenoxy)pyridin-3-yl)-6-(4-(4-(methylsulfonyl)benzyl)piperazine-1-carbonyl) benzofuran-2-carboxamide] | < 100
CS(=O)(=O)c1ccc(CN2CCN(C(=O)c3ccc4cc(C(=O)NC5CCN(Cc6ccc(OC(F)(F)C(F)F)cc6)CC5)oc4c3)CC2)cc1 [Compound 6-7, 6-(4-(4-(methylsulfonyl)benzyl)piperazine-1-carbonyl)-N-(1-(4-(1,1,2,2-tetrafluoroethoxy)benzyl)piperidin-4-yl)benzofuran-2-carboxamide] | < 100
CS(=O)(=O)c1ccc(N2CCN(c3ccc4oc(C(=O)NC5CCN(Cc6ccc(C#N)cc6)CC5)cc4c3)CC2)cc1 [Compound 6-9, N-(1-(4-cyanobenzyl)piperidin-4-yl)-5-(4-(4-(methylsulfonyl)phenyl)piperazin-1-yl)benzofuran-2-carboxamide] | 100 to 1000
CS(=O)(=O)c1ccc(CN2CCN(c3ccc4oc(C(=O)NC5CCN(Cc6ccc(C#N)cc6)CC5)cc4c3)CC2)cc1 [Compound 6-10, N-(1-(4-cyanobenzyl)piperidin-4-yl)-5-(4-(4-(methylsulfonyl)benzyl)piperazin-1-yl)benzofuran-2-carboxamide] | < 100
N#Cc1ccc(CN2CCC(NC(=O)c3cc4cc(C(=O)N5CCN(Cc6ccc(F)cc6)CC5)ccc4o3)CC2)cc1 [Compound 6-11, N-(1-(4-cyanobenzyl)piperidin-4-yl)-5-(4-(4-fluorobenzyl)piperazine-1-carbonyl)benzofuran-2-carboxamide] | < 100
O=C(Nc1ccc(Oc2ccccc2)cc1)c1cc2cc(C(=O)N3CCN(Cc4ccc(F)cc4)CC3)ccc2o1 [Compound 6-12, 5-(4-(4-fluorobenzyl)piperazine-l-carbonyl)-N-(4-phenoxyphenyl)benzofuran-2-carboxamide] | < 100
N#Cc1ccc(CN2CCC(NC(=O)c3cc4cc(CN5CCN(Cc6ccc(F)cc6)CC5)ccc4o3)CC2)cc1 [Compound 6-13, N-(1-(4-cyanobenzyl)piperidin-4-yl)-5-((4-(4-fluorobenzyl)piperazin-1-yl)methyl)benzofuran-2-carboxamide] | < 100
N#Cc1ccc(CN2CCC(NC(=O)c3cc4cc(CN5CCC(Oc6ccc(C#N)cc6)CC5)ccc4o3)CC2)cc1 [Compound 6-14, N-(1-(4-cyanobenzyl)piperidin-4-yl)-5-((4-(4-cyanophenoxy)piperidin-1-yl)methyl)benzofuran-2-carboxamide] | < 100
O=C(NC1CCN(Cc2ccncc2)CC1)c1cc2cc(C(=O)N3CCC(C(=O)c4ccc(F)cc4)CC3)ccc2o1 [Compound 6-15, 5-(4-(4-fluorobenzoyl)piperidine-1-carbonyl)-N-(1-(pyridin-4-ylmethyl)piperidin-4-yl)benzofuran-2-carboxamide] | 100 to 1000
N#Cc1ccc(CN2CCC(NC(=O)c3cc4cc(C(=O)N5CCC(C(=O)c6ccc(F)cc6)CC5)ccc4o3)CC2)cc1 [Compound 6-16, N-(1-(4-cyanobenzyl)piperidin-4-yl)-5-(4-(4-fluorobenzoyl)piperidine-1-carbonyl)benzofuran-2-carboxamide] | < 100
N#Cc1ccc(CN2CCC(NC(=O)c3cc4cc(C(=O)N5CCC(Oc6ccc(F)cc6)CC5)ccc4o3)CC2)cc1 [Compound 6-19, N-(1-(4-cyanobenzyl)piperidin-4-yl)-5-(4-(4-fluorophenoxy)piperidine-1-carbonyl)benzofuran-2-carboxamide] | < 100
COc1ccc(CN2CCC(NC(=O)c3cc4cc(NC(=O)C5CCN(c6ccc(C#N)cc6)CC5)ccc4o3)CC2)cc1 [Compound 6-21, 1-(4-cyanophenyl)-N-(2-(1-(4-methoxybenzyl)piperidin-4-ylcarbamoyl)benzofuran-5-yl)piperidine-4-carboxamide] | < 100
O=C(Nc1ccc2oc(C(=O)N3CCC(Oc4ccc(C(F)(F)F)cc4)CC3)cc2c1)c1ccc(Oc2ccc(F)cc2)cc1 [Compound 6-24, 4-(4-fluorophenoxy)-N-(2-(4-(4-(trifluoromethyl)phenoxy)piperidine-1-carbonyl)benzofuran-5-yl)benzamide] | < 100
COc1ccc(CN2CCC(NC(=O)c3cc4cc(C(=O)N5CCC(Oc6ccc(C(F)(F)F)cc6)CC5)ccc4o3)CC2)cc1 [Compound 6-25, N-(1-(4-methoxybenzyl)piperidin-4-yl)-5-(4-(4-(trifluoromethyl)phenoxy)piperidine-1-carbonyl) benzofuran-2-carboxamide] | < 100
N#Cc1ccc(CN2CCC(NC(=O)c3cc4cc(CN5CCC(Oc6ccc(C(F)(F)F)cc6)CC5)ccc4o3)CC2)cc1 [Compound 6-27, N-(1-(4-cyanobenzyl)piperidin-4-yl)-5-((4-(4-(trifluoromethyl)phenoxy)piperidin-1-yl)methyl) benzofuran-2-carboxamide] | < 100

Now from value to molecule:

EC50 [nM] | Compound
< 100 | COc1ccc(CN2CCC(NC(=O)c3cc4ccc(C(=O)N5CCN(Cc6ccc(S(C)(=O)=O)cc6)CC5)cc4o3)CC2)cc1 [Compound 6-3, N-(1-(4-methoxybenzyl)piperidin-4-yl)-6-(4-(4-(methylsulfonyl)benzyl)piperazine-1-carbonyl) benzofuran-2-carboxamide]
< 100 | COc1ccc(CN2CCC(NC(=O)c3cc4ccc(C(=O)N5CCN(Cc6ccc(S(C)(=O)=O)cc6)CC5)cc4o3)CC2)cc1F [Compound 6-5, N-(1-(3-fluoro-4-methoxybenzyl)piperidin-4-yl)-6-(4-(4-(methylsulfonyl)benzyl)piperazine-1-carbonyl) benzofuran-2-carboxamide]
< 100 | CS(=O)(=O)c1ccc(CN2CCN(C(=O)c3ccc4cc(C(=O)Nc5ccc(Oc6ccc(C#N)cc6)nc5)oc4c3)CC2)cc1 [Compound 6-8, N-(6-(4-cyanophenoxy)pyridin-3-yl)-6-(4-(4-(methylsulfonyl)benzyl)piperazine-1-carbonyl) benzofuran-2-carboxamide]
< 100 | N#Cc1ccc(Oc2ccc(NC(=O)c3cc4cc(C(=O)N5CCC(C(=O)c6ccc(F)cc6)CC5)ccc4o3)cn2)cc1 [Compound 6-17, N-(6-(4-cyanophenoxy)pyridin-3-yl)-5-(4-(4-fluorobenzoyl)piperidine-1-carbonyl)benzofuran-2-carboxamide]
< 100 | O=C(NC1CCN(Cc2ccncc2)CC1)c1cc2cc(C(=O)N3CCC(Oc4ccc(F)cc4)CC3)ccc2o1 [Compound 6-18, 5-(4-(4-fluorophcnoxy)piperidine-1-carbonyl)-N-(1-(pyridin-4-ylmethyl)piperidin-4-yl)benzofuran-2-carboxamide]
< 100 | N#Cc1ccc(N2CCC(C(=O)Nc3ccc4oc(C(=O)N5CCC(Oc6ccc(C(F)(F)F)cc6)CC5)cc4c3)CC2)cc1 [Compound 6-22, 1-(4-cyanophenyl)-N-(2-(4-(4-(trifluoromethyl)phenoxy)piperidine-1-carbonyl)benzofuran-5-yl)piperidine-4-carboxamide]
100 to 1000 | COc1ccc(CN2CCC(NC(=O)c3cc4cc(NC(=O)c5ccc(Oc6ccc(F)cc6)cc5)ccc4o3)CC2)cc1 [Compound 6-23, 5-(4-(4-fluorophenoxy)benzamido)-N-(1-(4-methoxybenzyl)piperidin-4-yl)benzofuran-2-carboxamide]
< 100 | O=C(Nc1ccc(Oc2ccc(F)cc2)nc1)c1cc2cc(C(=O)N3CCC(Oc4ccc(C(F)(F)F)cc4)CC3)ccc2o1 [Compound 6-26, N-(6-(4-fluorophenoxy)pyridin-3-yl)-5-(4-(4-(trifluoromethyl)phenoxy)piperidine-1-carbonyl) benzofuran-2-carboxamide]
